The test system of data set [1] is BaF3. Put plainly: cells. To be noted: Mus musculus, BaF3, 48 h.
Description: Antiproliferative activity against mouse BaF3 cells assessed as reduction in cell proliferation incubated for 48 hrs by cell proliferation assay
The target in data set [2] is T1, Voltage-gated inwardly rectifying potassium channel KCNH2 (Homo sapiens, UniProt Q12809). Kind of data set: Displacement of [3H]-dofetilide from human ERG expressed in CHO cell after 90 mins by microbeta liquid scintillation counting method. Type of data set: cell-based.
Data set [3] can be described thus: AUC in nude mouse xenografted with KIF5B-RET BaF3 cells xenografted at 3 mg/kg, po qd for 14 days. Type of data set: ADME, organism-based. Also noted: time 14 day, dose 3 mg/kg. The note with it: in vivo.
A short description of data set [4]: Plasma protein binding in mouse at 5 uM measured after 16 hrs by LC-MS/MS based rapid equilibrium dialysis analysis. To be noted: read-out: PPB (converted). In kind it is ADME, cell-free. For orientation: Equilibrium dialysis compares concentrations on both sides of a semipermeable membrane.
The nature of data set [5]: Volume of distribution at steady state in BALB/c mouse at 2 mg/kg, iv measured by LC-MS/MS analysis. Type of data set: ADME, organism-based. To be noted: in vivo, read-out: Vdss.
The nature of data set [6]: Half life in BALB/c mouse at 2 mg/kg, iv measured by LC-MS/MS analysis. In kind it is ADME, organism-based. The note with it: in vivo.
Data set [7] concerns BaF3. Put plainly: Antitumor activity against mouse KIF5B-RET BaF3 cells xenografted in nude mouse assessed as tumor regression at 3 mg/kg, po qd measured after 12 days. The note with it: time 12.0 day.
Data set [8] is described as follows: AUC in BALB/c mouse at 2 mg/kg, iv measured by LC-MS/MS analysis. Type of data set: ADME, organism-based. To be noted: in vivo. More on the design: dose 2 mg/kg.
Data set [9] in a line: Clearance in BALB/c mouse at 2 mg/kg, iv measured by LC-MS/MS analysis. Type of data set: ADME, organism-based. To be noted: in vivo.
The nature of data set [10]: fAUC in nude mouse xenografted with KIF5B-RET BaF3 cells xenografted at 3 mg/kg, po qd for 4 days. To be noted: in vivo, 96 h.
Data set [11] is described as follows: Oral bioavailability in BALB/c mouse at 10 mg/kg measured by LC-MS/MS analysis. In kind it is ADME, organism-based. The note with it: in vivo.
The target of data set [12] is T1, Voltage-gated inwardly rectifying potassium channel KCNH2. Put plainly: Inhibition of human ERG expressed in CHO cells by manual patch clamp assay. Type of data set: cell-based. (In general: In patch-clamp work, channel activity is measured electrically.)
Data set [13] in a line: Cmax in BALB/c mouse at 10 mg/kg, po measured by LC-MS/MS analysis. Type of data set: ADME, organism-based. Also noted: route oral, dose 10 mg/kg. The note with it: in vivo.
Data set [14] is described as follows: Toxicity in nude mouse transfected with mouse KIF5B-RET BaF3 cells assessed as adverse effect at 10 mg/kg, po qd measured after 14 days. Type of data set: organism-based. The note with it: in vivo, 336 h, time 14 day.
The nature of data set [15]: Toxicity in nude mouse transfected with mouse KIF5B-RET BaF3 cells assessed as adverse effect at 30 mg/kg, po qd measured after 14 days. In kind it is organism-based. The note with it: in vivo, 336 h, time 14 day.
Data set [16] is described as follows: AUC in BALB/c mouse at 10 mg/kg, po measured by LC-MS/MS analysis. Type of data set: ADME, organism-based. More on the design: dose 10 mg/kg. To be noted: in vivo.
Data set [17] is described as follows: Cmax in BALB/c mouse at 2 mg/kg, iv measured by LC-MS/MS analysis. In kind it is ADME, organism-based. More on the design: route intravenous, dose 2 mg/kg. To be noted: in vivo.
The nature of data set [18]: fCmax in nude mouse xenografted with KIF5B-RET BaF3 cells xenografted at 3 mg/kg, po qd for 4 days. To be noted: in vivo, 96 h.
The nature of data set [19]: Cmax nude mouse xenografted with KIF5B-RET BaF3 cells xenografted at 3 mg/kg, po qd for 14 days. To be noted: in vivo. In kind it is ADME, organism-based. Also noted: route oral, time 14 day, dose 3 mg/kg.
The nature of data set [20]: Half life in BALB/c mouse at 10 mg/kg, po measured by LC-MS/MS analysis. In kind it is ADME, organism-based. The note with it: in vivo.
Data set [21] has as its target Bcr/Abl fusion protein (Homo sapiens, UniProt P00519). Put plainly: Inhibition of BCR-ABL (unknown origin) expressed in mouse BaF3 cells assessed as reduction in cell proliferation incubated for 48 hrs by cell proliferation assay. In kind it is cell-based.

pIC50: −log10 of the molar value. The source made the active and inactive calls.

Usually pIC50 stands for −log10 of the IC50, conventionally taken in molar units. As usually defined, the AUC is concentration integrated over time. A higher AUC goes with more exposure. For orientation: half-life means the time needed for the level to fall by half in the phase considered. What is called clearance is the rate of elimination divided by the concentration. A higher clearance goes with efficient removal. For orientation: bioavailability means dose-corrected exposure relative to a reference, in per cent. A higher bioavailability goes with good availability. A word on the Cmax: it is the maximum level reached in the sampled fluid or tissue.

T1 sequence (Q12809 whole entry): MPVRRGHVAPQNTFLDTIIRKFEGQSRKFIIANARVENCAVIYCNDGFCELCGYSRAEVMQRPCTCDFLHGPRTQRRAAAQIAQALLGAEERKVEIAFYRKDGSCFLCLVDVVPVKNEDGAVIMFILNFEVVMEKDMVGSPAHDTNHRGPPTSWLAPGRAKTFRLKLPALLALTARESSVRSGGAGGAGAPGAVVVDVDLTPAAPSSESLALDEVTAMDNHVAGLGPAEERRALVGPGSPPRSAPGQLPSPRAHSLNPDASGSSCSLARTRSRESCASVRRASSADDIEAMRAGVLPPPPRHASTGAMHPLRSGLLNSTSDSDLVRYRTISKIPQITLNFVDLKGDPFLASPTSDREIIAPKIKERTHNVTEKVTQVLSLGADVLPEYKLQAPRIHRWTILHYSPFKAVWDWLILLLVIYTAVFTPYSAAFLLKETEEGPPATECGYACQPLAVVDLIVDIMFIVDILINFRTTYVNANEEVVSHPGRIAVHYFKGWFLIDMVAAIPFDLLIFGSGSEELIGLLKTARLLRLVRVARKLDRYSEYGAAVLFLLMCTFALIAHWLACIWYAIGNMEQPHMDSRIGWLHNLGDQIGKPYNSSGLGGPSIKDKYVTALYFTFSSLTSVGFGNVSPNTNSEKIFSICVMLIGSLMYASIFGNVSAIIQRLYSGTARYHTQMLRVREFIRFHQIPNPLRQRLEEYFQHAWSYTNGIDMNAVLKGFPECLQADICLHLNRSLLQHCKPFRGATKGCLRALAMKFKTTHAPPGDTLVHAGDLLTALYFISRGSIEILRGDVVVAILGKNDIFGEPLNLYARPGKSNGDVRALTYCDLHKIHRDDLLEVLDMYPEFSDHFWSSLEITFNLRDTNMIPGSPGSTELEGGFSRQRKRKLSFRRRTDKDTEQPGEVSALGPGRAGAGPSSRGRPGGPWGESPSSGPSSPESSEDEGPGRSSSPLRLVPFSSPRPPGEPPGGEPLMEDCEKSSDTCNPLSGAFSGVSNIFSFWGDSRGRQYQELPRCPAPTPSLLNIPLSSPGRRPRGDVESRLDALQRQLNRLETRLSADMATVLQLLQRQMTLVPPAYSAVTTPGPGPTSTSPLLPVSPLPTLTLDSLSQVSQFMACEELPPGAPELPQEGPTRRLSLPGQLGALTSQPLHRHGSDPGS
Bcr/Abl fusion protein, sequence (P00519 whole entry, the tested form may be a part): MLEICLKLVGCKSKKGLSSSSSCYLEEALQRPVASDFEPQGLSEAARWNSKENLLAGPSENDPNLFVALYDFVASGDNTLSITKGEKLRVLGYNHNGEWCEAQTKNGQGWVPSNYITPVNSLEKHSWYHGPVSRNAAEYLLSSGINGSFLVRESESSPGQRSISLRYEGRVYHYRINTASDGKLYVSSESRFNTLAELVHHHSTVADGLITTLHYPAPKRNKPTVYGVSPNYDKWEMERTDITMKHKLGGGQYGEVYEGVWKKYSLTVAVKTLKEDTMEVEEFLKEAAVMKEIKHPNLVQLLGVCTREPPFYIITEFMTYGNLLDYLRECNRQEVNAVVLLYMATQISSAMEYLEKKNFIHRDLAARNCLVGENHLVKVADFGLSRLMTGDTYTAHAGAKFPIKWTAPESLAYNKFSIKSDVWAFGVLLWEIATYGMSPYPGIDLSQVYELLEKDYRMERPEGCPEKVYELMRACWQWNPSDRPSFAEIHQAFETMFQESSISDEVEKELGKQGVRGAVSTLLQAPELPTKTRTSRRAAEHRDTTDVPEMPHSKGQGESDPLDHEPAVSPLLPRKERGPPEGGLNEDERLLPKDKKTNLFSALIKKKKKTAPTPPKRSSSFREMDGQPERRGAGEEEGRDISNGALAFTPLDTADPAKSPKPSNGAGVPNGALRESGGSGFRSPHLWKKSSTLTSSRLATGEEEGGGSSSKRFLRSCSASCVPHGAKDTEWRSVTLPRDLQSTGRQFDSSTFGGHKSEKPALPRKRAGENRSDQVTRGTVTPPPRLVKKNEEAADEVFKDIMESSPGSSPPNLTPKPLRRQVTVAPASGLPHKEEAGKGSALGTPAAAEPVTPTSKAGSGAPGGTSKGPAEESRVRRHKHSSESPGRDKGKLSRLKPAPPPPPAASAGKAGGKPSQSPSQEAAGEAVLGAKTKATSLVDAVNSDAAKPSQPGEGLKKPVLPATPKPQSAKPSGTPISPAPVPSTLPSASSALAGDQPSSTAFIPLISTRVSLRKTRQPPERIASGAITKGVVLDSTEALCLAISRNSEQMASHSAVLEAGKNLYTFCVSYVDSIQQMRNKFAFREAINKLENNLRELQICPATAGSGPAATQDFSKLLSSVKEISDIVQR
Bcr/Abl fusion protein, sequence (P11274 whole entry, further chain, the tested form may be a part): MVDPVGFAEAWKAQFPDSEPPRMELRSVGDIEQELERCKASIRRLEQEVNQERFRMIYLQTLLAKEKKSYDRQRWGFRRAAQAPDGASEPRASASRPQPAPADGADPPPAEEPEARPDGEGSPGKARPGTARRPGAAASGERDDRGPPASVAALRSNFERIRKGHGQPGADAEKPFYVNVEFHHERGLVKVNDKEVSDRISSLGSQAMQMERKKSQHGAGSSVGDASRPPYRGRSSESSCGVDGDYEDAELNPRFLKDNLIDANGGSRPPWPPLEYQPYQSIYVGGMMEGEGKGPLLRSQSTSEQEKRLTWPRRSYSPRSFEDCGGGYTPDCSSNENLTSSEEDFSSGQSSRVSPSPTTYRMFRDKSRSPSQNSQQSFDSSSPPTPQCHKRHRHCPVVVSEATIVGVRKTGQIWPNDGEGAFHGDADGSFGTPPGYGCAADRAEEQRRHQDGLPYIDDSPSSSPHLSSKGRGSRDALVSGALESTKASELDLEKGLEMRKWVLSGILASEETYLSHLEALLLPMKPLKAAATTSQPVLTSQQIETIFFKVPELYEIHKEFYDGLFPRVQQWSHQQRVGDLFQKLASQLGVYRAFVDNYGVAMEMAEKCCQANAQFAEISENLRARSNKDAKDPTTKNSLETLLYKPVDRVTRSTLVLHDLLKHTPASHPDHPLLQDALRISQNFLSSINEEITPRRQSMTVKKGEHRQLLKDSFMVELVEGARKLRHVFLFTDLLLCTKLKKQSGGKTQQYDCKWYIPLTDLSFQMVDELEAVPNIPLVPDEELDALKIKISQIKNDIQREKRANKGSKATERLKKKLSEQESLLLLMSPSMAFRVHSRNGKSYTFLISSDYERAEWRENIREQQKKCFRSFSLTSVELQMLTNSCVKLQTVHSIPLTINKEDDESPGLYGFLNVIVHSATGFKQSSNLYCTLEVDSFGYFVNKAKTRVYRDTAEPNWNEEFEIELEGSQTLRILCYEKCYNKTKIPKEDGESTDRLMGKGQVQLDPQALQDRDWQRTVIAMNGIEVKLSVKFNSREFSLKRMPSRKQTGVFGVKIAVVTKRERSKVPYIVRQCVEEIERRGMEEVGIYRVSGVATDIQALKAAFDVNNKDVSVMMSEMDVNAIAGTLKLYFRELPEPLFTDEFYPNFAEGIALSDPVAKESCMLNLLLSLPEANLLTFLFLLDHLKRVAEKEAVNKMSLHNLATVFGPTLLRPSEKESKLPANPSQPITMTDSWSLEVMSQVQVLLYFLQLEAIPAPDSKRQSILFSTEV

`CC(=O)N1CCN([C@H]2C[C@@H](n3cc(-c4cccc(O)c4)c4c(N)ncnc43)C2)CC1`: in data set [1], the pIC50 is < 5.00.
`CC(=O)N1CCN([C@H]2C[C@@H](n3cc(-c4ccc(Cl)c(O)c4)c4c(N)ncnc43)C2)CC1` showed a pIC50 in [1] of 5.43.
Regarding `CC(=O)N1CCN([C@H]2C[C@@H](n3cc(-c4ccccc4O)c4c(N)ncnc43)C2)CC1`, the pIC50 in [1] was < 5.00.
In the case of `COC(=O)NC12CCC(n3cc(-c4ccc(Cl)c(N)c4)c4c(N)ncnc43)(CC1)CC2`, the results for the negative-log IC50 (pIC50) in data set [2], in [1] and in data set [12] were 5.00, 5.59 and 5.52, respectively. The compound also came in with an AUC at 336 h in data set [3] of 106 µM·h. For the same compound, the fraction unbound at 16 h, 5 µM in [4] is 0.0042. For the same compound, in data set [5], the Vd was 1.1 L/kg. The half-life was 10 h in [6] and 22 h in [20]. In [7], the result was Active. Besides, the results for the AUC in [8] and in data set [16] were 54 µM·h and 160 µM·h, respectively. In data set [9], this compound showed a clearance of 1.4 mL/min/kg. This compound also yielded a fAUC in data set [10] of 0.45 µM·h. In [11], this compound registered a bioavailability of 58%. The Cmax in data set [13] turned out to be 9.5 µM; in data set [17], 5.6 µM; in [19] it was 7.4 µM. Besides, the Activity result in data set [14] and in data set [15] was “Non-Toxic” each time. In data set [18], the fCmax came out at 0.031 µM.
On to `COc1cc(-c2cn([C@H]3C[C@@H](N4CCN(C(C)=O)CC4)C3)c3ncnc(N)c23)ccc1Cl`, for which the pIC50 in data set [1] is < 5.00.
`Nc1ncnc2c1c(-c1cccc(O)c1)cn2[C@H]1C[C@@H](CO)C1`: the pIC50 in data set [21] is 7.37.

Source of the values: ChEMBL document CHEMBL4831559, “Antitarget Selectivity and Tolerability of Novel Pyrrolo[2,3-d]pyrimidine RET Inhibitors” (ACS Med Chem Lett, 2021).
